Reference: patent publication US9999619B2, “Piperidin-4-yl azetidine derivatives as JAK1 inhibitors” (Incyte Corporation, priority 2010, dated 2018)
pIC50: −log10 of the molar value.

How the values were obtained:
Format in all cases: biochemical
Jak2 (a.a. 828-1132) = Jak2 (a.a. 828-1132) (Homo sapiens (Human), UniProt O60674); assay: In vitro JAK kinase assay (HTRF, phosphorylation of a biotinylated peptide), JAK2; settings: measured at 1 mM ATP
In short: (§1)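 N-terminal His-tagged catalytic domains, baculovirus-expressed in insect cells, phosphorylated a biotinylated peptide for 1 hr at room temperature. EDTA stop was followed by SA-APC and Eu-Py20 antibody for 40 minutes, with phosphopeptide read by HTRF.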

[1] = target: human JAK1 (a.a. 837-1142); assay: In vitro JAK kinase assay (HTRF, phosphorylation of a biotinylated peptide), JAK1; settings: ratio of JAK2 IC50 to JAK1 IC50, measured at 1 mM ATP
In short: as §1

[2] = target: human JAK1 (a.a. 837-1142) (Homo sapiens, UniProt P23458); assay: as above; settings: measured at 1 mM ATP
In short: as §1

Jak2 (a.a. 828-1132), sequence (O60674 828-1132): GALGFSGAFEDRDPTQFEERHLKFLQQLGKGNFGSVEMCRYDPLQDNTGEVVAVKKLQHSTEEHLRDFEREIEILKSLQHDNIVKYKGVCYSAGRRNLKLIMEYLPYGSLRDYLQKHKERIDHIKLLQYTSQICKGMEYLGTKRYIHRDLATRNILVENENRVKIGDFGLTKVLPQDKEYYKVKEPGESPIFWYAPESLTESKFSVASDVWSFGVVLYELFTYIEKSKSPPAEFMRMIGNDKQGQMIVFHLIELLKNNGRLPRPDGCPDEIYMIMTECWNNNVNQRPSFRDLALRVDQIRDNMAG

| SMILES | pIC50 (Jak2 (a.a. 828-1132)) | IC50 Ratio JAK2/JAK1 [1] | pIC50 [2] |
| --- | --- | --- | --- |
| N#CCC1(n2cc(-c3ncnc4[nH]ccc34)cn2)CN(C2CCN(C(=O)C3CCCCC3)CC2)C1 [Example 8, {1-[1-(cyclohexylcarbonyl)piperidin-4-yl]-3-[4-(7H-pyrrolo[2,3-d]pyrimidin-4-yl)-1H-pyrazol-1-yl]azetidin-3-yl}acetonitrile] | 7.00 to 7.30 | 11.0 | 7.70 to 8.30 |
| N#CCC1(n2cc(-c3ccnc4[nH]ccc34)cn2)CN(C2CCN(C(=O)Nc3ccc(F)cc3C(F)(F)F)CC2)C1 [Example 303, 4-{3-(Cyanomethyl)-3-[4-(1H-pyrrolo[2,3-b]pyridin-4-yl)-1H-pyrazol-1-yl]azetidin-1-yl}-N-[4-fluoro-2-(trifluoromethyl)phenyl]piperidine-1-carboxamide] | 7.00 to 7.30 | 19.7 | ≥ 8.30 |
| CN(CCCO)Cc1cc(C(=O)N2CCC(N3CC(CC#N)(n4cc(-c5ncnc6[nH]ccc56)cn4)C3)CC2)nc(C(F)(F)F)n1 [Example 385, {1-(1-{[6-{[(3-hydroxypropyl)(methyl)amino]methyl}-2-(trifluoromethyl)pyrimidin-4-yl]carbonyl}piperidin-4-yl)-3-[4-(7H-pyrrolo[2,3-d]pyrimidin-4-yl)-1H-pyrazol-1-yl]azetidin-3-yl}acetonitrile] | 7.00 to 7.30 | 28.9 | ≥ 8.30 |
| N#CCC1(n2cc(-c3ncnc4[nH]ccc34)cn2)CN(C2CCN(C(=O)C3CCC(F)(F)CC3)CC2)C1 [Example 100, {1-{1-[(4,4-difluorocyclohexyl)carbonyl]piperidin-4-yl}-3-[4-(7H-pyrrolo[2,3-d]pyrimidin-4-yl)-1H-pyrazol-1-yl]azetidin-3-yl}acetonitrile] | 7.00 to 7.30 | 6.6 | 7.70 to 8.30 |
| N#CCC1(n2cc(-c3c(C#N)cnc4[nH]ccc34)cn2)CN(C2CCN(C(=O)c3cc(F)cc(C#N)c3)CC2)C1 [Example 333, 4-{1-[1-[1-(3-cyano-5-fluorobenzoyl)piperidin-4-yl]-3-(cyanomethyl)azetidin-3-yl]-1H-pyrazol-4-yl}-1H-pyrrolo[2,3-b]pyridine-5-carbonitrile] | 7.00 to 7.30 | 8.8 | 7.70 to 8.30 |
| N#CCC1(n2cc(-c3ncnc4[nH]ccc34)cn2)CN(C2CCN(Cc3cccc(Oc4ccccc4)c3)CC2)C1 [Example 233, {1-[1-(3-phenoxybenzyl)piperidin-4-yl]-3-[4-(7H-pyrrolo[2,3-d]pyrimidin-4-yl)-1H-pyrazol-1-yl]azetidin-3-yl}acetonitrile] | 7.00 to 7.30 | 2.2 | 7.52 to 7.70 |
| N#CCC1(n2cc(-c3ncnc4[nH]ccc34)cn2)CN(C2CCN(S(=O)(=O)c3cccc(C#N)c3)CC2)C1 [Example 248, 3-[(4-{3-(cyanomethyl)-3-[4-(7H-pyrrolo[2,3-d]pyrimidin-4-yl)-1H-pyrazol-1-yl]azetidin-1-yl}piperidin-1-yl)sulfonyl]benzonitrile] | < 7.00 | 5.2 | 7.52 to 7.70 |
| N#CCC1(n2cc(-c3ccnc4[nH]ccc34)cn2)CN(C2CCN(C(=O)Nc3ccc(F)cc3Cl)CC2)C1 [Example 305, N-(2-chloro-4-fluorophenyl)-4-{3-(cyanomethyl)-3-[4-(1H-pyrrolo[2,3-b]pyridin-4-yl)-1H-pyrazol-1-yl]azetidin-1-yl}piperidine-1-carboxamide] | 7.00 to 7.30 | 16.0 | ≥ 8.30 |
| N#CCC1(n2cc(-c3ncnc4[nH]ccc34)cn2)CN(C2CCN(C(=O)c3cncc(C(F)(F)F)n3)CC2)C1 [Example 86, [3-[4-(7H-pyrrolo[2,3-d]pyrimidin-4-yl)-1H-pyrazol-1-yl]-1-(1-{[6-(trifluoromethyl)pyrazin-2-yl]carbonyl}piperidin-4-yl)azetidin-3-yl]acetonitrile] | 7.00 to 7.30 | 19.4 | ≥ 8.30 |
| N#CCC1(n2ccc(-c3ncnc4[nH]ccc34)c2)CN(C2CCN(C(=O)c3ccc(C#N)cc3F)CC2)C1 [Example 264, 4-[(4-{3-(cyanomethyl)-3-[3-(7H-pyrrolo[2,3-d]pyrimidin-4-yl)-1H-pyrrol-1-yl]azetidin-1-yl}piperidin-1-yl)carbonyl]-3-fluorobenzonitrile] | 7.00 to 7.30 | 9.5 | 7.70 to 8.30 |

Further lines, results first:

| pIC50 (Jak2 (a.a. 828-1132)) | IC50 Ratio JAK2/JAK1 [1] | pIC50 [2] | SMILES |
| --- | --- | --- | --- |
| 7.30 to 8.00 | 1.6 | 7.70 to 8.30 | N#CCC1(n2cc(-c3ncnc4[nH]ccc34)cn2)CN(C2CCN(C(=O)C3(c4ccccc4)CC3)CC2)C1 [Example 110, {1-{1-[(1-phenylcyclopropyl)carbonyl]piperidin-4-yl}-3-[4-(7H-pyrrolo[2,3-d]pyrimidin-4-yl)-1H-pyrazol-1-yl]azetidin-3-yl}acetonitrile] |
| 7.30 to 8.00 | 15.7 | ≥ 8.30 | N#CCC1(n2cc(-c3ncnc4[nH]ccc34)cn2)CN(C2CCN(C(=O)c3ccc(-c4ccc5cnccc5c4)c(F)c3)CC2)C1 [Example 115, {1-[1-(3-fluoro-4-isoquinolin-6-ylbenzoyl)piperidin-4-yl]-3-[4-(7H-pyrrolo[2,3-d]pyrimidin-4-yl)-1H-pyrazol-1-yl]azetidin-3-yl}acetonitrile] |
| ≥ 8.00 | 7.5 | ≥ 8.30 | N#CCC1(n2ccc(-c3ncnc4[nH]ccc34)c2)CN(C2CCN(C(=O)c3ccc(F)c(F)c3F)CC2)C1 [Example 280, {3-[3-(7H-pyrrolo[2,3-d]pyrimidin-4-yl)-1H-pyrrol-1-yl]-1-[1-(2,3,4-trifluorobenzoyl)piperidin-4-yl]azetidin-3-yl}acetonitrile] |
| 7.30 to 8.00 | 4.3 | 7.70 to 8.30 | N#CCC1(n2cc(-c3ncnc4[nH]ccc34)cn2)CN(C2CCN(C(=O)c3ccc(-c4ccc(F)c(F)c4)c(F)c3)CC2)C1 [Example 127, (3-[4-(7H-pyrrolo[2,3-d]pyrimidin-4-yl)-1H-pyrazol-1-yl]-1-{1-[(2,3′,4′-trifluorobiphenyl-4-yl)carbonyl]piperidin-4-yl}azetidin-3-yl)acetonitrile] |
| 7.30 to 8.00 | 2.8 | ≥ 8.30 | N#CCC1(n2cc(-c3c(F)cnc4[nH]ccc34)cn2)CN(C2CCN(C(=O)c3ccncc3F)CC2)C1 [Example 320, {1-[1-(3-fluoroisonicotinoyl)piperidin-4-yl]-3-[4-(5-fluoro-1H-pyrrolo[2,3-b]pyridin-4-yl)-1H-pyrazol-1-yl]azetidin-3-yl}acetonitrile] |
| ≥ 8.00 | 3.9 | ≥ 8.30 | N#CCC1(n2cc(-c3ncnc4[nH]ccc34)cn2)CN(C2CCN(Cc3c(F)ccc(Cl)c3F)CC2)C1 [Example 228, {1-[1-(3-chloro-2,6-difluorobenzyl)piperidin-4-yl]-3-[4-(7H-pyrrolo[2,3-d]pyrimidin-4-yl)-1H-pyrazol-1-yl]azetidin-3-yl}acetonitrile] |
| ≥ 8.00 | 2.9 | ≥ 8.30 | N#CCC1(n2cc(-c3ncnc4[nH]ccc34)cn2)CN(C2CCN(C(=O)c3c(F)cccc3F)CC2)C1 [Example 44, {1-[1-(2,6-difluorobenzoyl)piperidin-4-yl]-3-[4-(7H-pyrrolo[2,3-d]pyrimidin-4-yl)-1H-pyrazol-1-yl]azetidin-3-yl}acetonitrile] |
| 7.30 to 8.00 | 33.8 | ≥ 8.30 | CC(C)NC(=O)N1CCC(N2CC(CC#N)(n3cc(-c4ncnc5[nH]ccc45)cn3)C2)CC1 [Example 367, 4-{3-(cyanomethyl)-3-[4-(7H-pyrrolo[2,3-d]pyrimidin-4-yl)-1H-pyrazol-1-yl]azetidin-1-yl}-N-isopropylpiperidine-1-carboxamide] |
| ≥ 8.00 | 5.1 | ≥ 8.30 | N#CCC1(n2cc(-c3ncnc4[nH]ccc34)cn2)CN(C2CCN(S(=O)(=O)c3ccccc3C#N)CC2)C1 [Example 247, 2-[(4-{3-(cyanomethyl)-3-[4-(7H-pyrrolo[2,3-d]pyrimidin-4-yl)-1H-pyrazol-1-yl]azetidin-1-yl}piperidin-1-yl)sulfonyl]benzonitrile] |
| 7.30 to 8.00 | 6.9 | ≥ 8.30 | N#CCC1(n2cc(-c3ncnc4[nH]ccc34)cn2)CN(C2CCN(C(=O)Nc3cccc(C(F)(F)F)c3F)CC2)C1 [Example 170, 4-{3-(cyanomethyl)-3-[4-(7H-pyrrolo[2,3-d]pyrimidin-4-yl)-1H-pyrazol-1-yl]azetidin-1-yl}-N-[2-fluoro-3-(trifluoromethyl)phenyl]piperidine-1-carboxamide] |
| 7.30 to 8.00 | 12.9 | ≥ 8.30 | N#CCC1(n2cc(-c3c(F)cnc4[nH]ccc34)cn2)CN(C2CCN(C(=O)Nc3ccc(F)cc3C(F)(F)F)CC2)C1 [Example 328, 4-{3-(Cyanomethyl)-3-[4-(5-fluoro-1H-pyrrolo[2,3-b]pyridin-4-yl)-1H-pyrazol-1-yl]azetidin-1-yl}-N-[4-fluoro-2-(trifluoromethyl)phenyl]piperidine-1-carboxamide] |
| 7.30 to 8.00 | 15.5 | ≥ 8.30 | N#CCC1(n2cc(-c3ncnc4[nH]ccc34)cn2)CN(C2C3COCC2CN(C(=O)c2ccnc(C(F)(F)F)c2F)C3)C1 (stereo not drawn) [Example 365, {1-{7-[3-Fluoro-2-(trifluoromethyl)isonicotinoyl]-3-oxa-7-azabicyclo[3.3.1]non-9-yl}-3-[4-(7H-pyrrolo[2,3-d]pyrimidin-4-yl)-1H-pyrazol-1-yl]azetidin-3-yl}acetonitrile] |
| 7.30 to 8.00 | 7.5 | ≥ 8.30 | COc1ccc(C(=O)N2CCC(N3CC(CC#N)(n4cc(-c5ncnc6[nH]ccc56)cn4)C3)CC2)cc1C#N [Example 55, 5-[(4-{3-(cyanomethyl)-3-[4-(7H-pyrrolo[2,3-d]pyrimidin-4-yl)-1H-pyrazol-1-yl]azetidin-1-yl}piperidin-1-yl)carbonyl]-2-methoxybenzonitrile] |
